From patent US20230210890A1, “COMPOSITIONS AND METHODS OF TREATING COVID-19 WITH HEPARIN OR OTHER NEGATIVELY CHARGED MOLECULES” (Siemens Healthcare Diagnostics Inc., priority 2020, published 2023)

How the values were obtained:
[1] = test system: hospitalized patients with Covid-19; settings: WHO Solidarity Trial; cited from earlier work
SARS CoV-2 = settings: whole blood or plasma samples collected with the anticoagulant
[2] = test system: adults with mild COVID-19; settings: cited from earlier work

**Q.** Which “effect on hospitalized patients with Covid-19” value [1] does the source give for `Cc1cccc(C)c1OCC(=O)N[C@@H](Cc1ccccc1)[C@@H](O)C[C@H](Cc1ccccc1)NC(=O)[C@H](C(C)C)N1CCCNC1=O` [lopinavir] here?
**A.** Its value is “little or no effect”.

**Q.** For lithium heparin, which “inhibition of certain SARS CoV-2 assays” value (SARS CoV-2) is on record?
**A.** The value was “inhibited”.

**Q.** For ivermectin, which “effect on the duration of symptoms” value [2] is on record?
**A.** Its value is “not have a significant effect”.

**Q.** Which “inhibition of certain SARS CoV-2 assays” value (SARS CoV-2) does the source give for heparin sodium [sodium heparin] here?
**A.** Its value is “inhibited”.

**Q.** Which “effect on hospitalized patients with Covid-19” value [1] does the source give for `CCN(CCO)CCCC(C)Nc1ccnc2cc(Cl)ccc12` (centres unmarked) [hydroxychloroquine] here?
**A.** The value was “little or no effect”.
